The values that follow come from ChEMBL document CHEMBL1152004, “Chloramphenicol: High dilution FT-IR evidence for an intramolecular hydrogen bond” (Bioorg Med Chem Lett, 1991).

What is called Kd is the free concentration of one partner at which half of the binding sites on the other are occupied at equilibrium, for simple one-to-one binding. A high value points to weaker binding.

The target of this assay is Ribosome. Briefly: Inhibition of protein biosynthesis at the level of the peptidyl transferase center of the 50 s ribosomal subunit. Format: subcellular.

Molecule `O=C(N[C@H](CO)[C@H](O)c1ccc([N+](=O)[O-])cc1)C(Cl)Cl` [CHLORAMPHENICOL] returned a Kd of roughly 1 µM.
